Measured values from publication PMC4727972, “Chronic unpredicted mild stress-induced depression alter saxagliptin pharmacokinetics and CYP450 activity in GK rats” (PeerJ, 2016).
Read-outs that look alike come from different tables or passages of the source.

What was measured:
[1] = Pharmacokinetics of Sax in plasma after oral 0.5 mg/kg (HPLC-MS/MS, noncompartmental analysis); assay type: in vivo, GK rats; settings: for AUC(0-inf) / Cmax / Tmax / MRT last / half-life / Vd/F: plasma, po; for AUC(0-inf) / Cmax / Tmax / MRT last / half-life / Vd/F / CLz/F: n = 9, mean ± SD; for MRT last: read-out: MRT0−t; for half-life: read-out: T1/2z (converted); for Vd/F: read-out: Vz/F
Procedure: All rats were fasted overnight but with free access to water. 0.5 mg/kg Sax (suspended in 5 g/L Carboxymethyl cellulose-Na) was given orally. Blood samples were collected by eye canthus at 0.17, 0.33, 0.5, 0.83, 1.17, 1.5, 2, 3, 5, 8 h. Then plasma samples were centrifuged to obtain plasma at 3,000 × g for 5 min. The samples were stored at −80 °C for analysis.
The Sax concentration was assayed by the HPLC-tandem mass spectrometry (MS/MS) method ([Gao et al., 2012]). A total of 100 µL plasma sample and 10 µL Sit (100 ng/mL) was added with 1.2 mL ethyl acetate in a centrifuge tube, vortex-mixed for 2 min and centrifuged at 10,000 × g for 3 min. The supernatant was evaporated to dry. The residue was re-dissolved with 100 µL methanol via vortex-mixed for 1 min and centrifuged at 16,000 × g for 1 min. 2.0 µL of the supernatant was injected into the HPLC-MS/MS system for analysis.
The HPLC equipped with a reverse-phase column was connected to a triple quadrupole tandem MS with an electrospray interface. The system consists of the LC system (Agilent 1260, Agilent, US) with a G1322A degasser, a G1318B auto-modifiable pump, a G1367E auto-sampler, a G1316A adjustable column temperature box, and the Agilent 6420 MS system. Chromatographic separation was achieved using a ZORBAX EP-C18 column (2.1 mm × 50 mm, 1.8 µm, Agilent). The mobile phase contained 35% methanol and 65% water (0.1% ammonium formate) with a flow rate 0.4 mL/min. The optimized conditions of MS were as follows: positive electrospray ionization (ESI^+) mode, capillary at 4,000 V, ion-spray gas temperature at 350 °C, gas flow rate at 11 L/min, and nebulizer at 15 psi. The parameters of Sax and Sit were as follows: fragmentary voltage at 110 V and 130 V, collision energy at 22 units and 18 units, respectively. The multiple-reaction monitoring mode was selected for quantifying of Sax and Sit, for which the precursor-to-product ion transitions were 316.1 → 179.9 and 407.9 → 234.9, respectively. The MassHunter Workstation software (Version B.06.00, Agilent) was used to collect and process data.
Statistical analysis and pharmacokinetics parameter analysis were performed with SPSS 16.0 (SPSS Inc., Chicago, IL, USA) and DAS 2.1 software (Drug and Statistics, Shanghai University of Traditional Chinese Medicine, Shanghai, China). Differences between the two groups were analyzed via independent-samples t Test. Data was expressed as mean ± standard deviation (SD). p < 0.05 was considered statistically significant.

liver microsomal enzyme = assay: Metabolism of Sax using liver microsomal enzyme in vitro; assay type: in vitro ADME, GK rats; settings: decreased from 0.50 mg/mL
Procedure: The control and CUMS-induced rats were fasted for 12 h and killed by cervical dislocation before removal of the liver. The liver was excised, rinsed with ice-cold normal saline (0.9% NaCl, w/v), weighed for 1 g, and homogenized with 4.0 mL in a 0.05M Tris–HCl buffer (pH 7.4). The homogenate was centrifuged at 10,000 × g at 4 °C for 20 min, and the supernatant was further centrifuged at 105,000 × g at 4 °C for 60 min. The helvus sediment was reconstituted with 1.0 mL Tris–HCl buffer and stored at −80 °C for analysis.
The incubation mixtures (final volume: 500 µL) contained 1 mg/mL microsomal protein, 0.1 M phosphate buffer (PH = 7.4), 1 mM nicotinamide adenine dinucleotide phosphate (NADPH), probe drugs (1 mg/mL Phe, Ven, Nif). A total of 100 µL microsomal protein and 100 µL probe drugs were added with 250 µL phosphate buffer in a brown centrifuge tube, vortex-mixed for 1 min, and incubated at 37 °C water. After 5 min pre-incubation, the reactions were initiated by the addition of 50 µL NADPH. The incubations were performed at 37 °C for 20 min in a water bath and terminated by adding 1.4 mL cold ethyl acetate and 20 µL Lor (5 µg/mL). […]
It is well known that Sax is mainly metabolized by cytochrome 3A enzyme in the liver. […] Considering of the complicacy of metabolic system in vivo, we detected metabolism of Sax using liver microsomal enzyme in vitro with cocktails method. […]

[2] = parameters: method as in Fura et al., 2009; settings: rats; ref Fura et al., 2009; cited from earlier work
[3] = GK, rat, 0.5 mg/kg, control group (diabetic GK rats), 0.5 mg/kg oral
[4] = GK, rat, 0.5 mg/kg, depression group (CUMS-induced, GK rats), 0.5 mg/kg oral
[5] = depression group vs control group, 0.5 mg/kg oral, p < 0.05

SMILES: N#C[C@@H]1C[C@@H]2C[C@@H]2N1C(=O)[C@@H](N)C12CC3CC(CC(O)(C3)C1)C2 [Sax, (S)-3-hydroxyadamantylglycine-L-cis-4,5-methanoprolinenitrile]
- concentration at 5 h ([1]; GK, rat, 0.5 mg/kg, single plasma sample at 5 h after oral Sax (chromatogram, Fig. 3C), group not stated): 3.05 ng/mL
- AUC(0-inf) [1, 3]: 67.1 ± 14.1 ng·h/mL
- Cmax [1, 3]: 20.5 ± 4.61 ng/mL
- Tmax [1, 3]: 1.46 ± 0.38 h
- MRT last [1, 3]: 2.55 ± 0.32 h
- half-life [1, 3]: 1.73 ± 0.43 h
- Vd/F [1, 3]: 21 ± 8.22 L
- AUC(0-inf) [1, 4]: 44.6 ± 15.5 ng·h/mL
- Cmax [1, 4]: 14.8 ± 6.03 ng/mL
- Tmax [1, 4]: 1.04 ± 0.25 h
- MRT last [1, 4]: 1.95 ± 0.57 h
- half-life [1, 4]: 1.58 ± 0.59 h
- Vd/F [1, 4]: 29.8 ± 14.2 L
- CLz/F ([1]; control group (diabetic GK rats), 0.5 mg/kg oral): 7.35 ± 1.34 L/h
- CLz/F ([1]; depression group (CUMS-induced, GK rats), 0.5 mg/kg oral): 13.05 ± 6.30 L/h
- decrease of area under curve (AUC0−∞) in the depression group [1, 5]: 33%
- decrease of mean residence time (MRT0−t) in the depression group [1, 5]: 24%
- decrease of peak concentration (Cmax) in the depression group [1, 5]: 27%
- decrease of peak time (Tmax) in the depression group [1, 5]: 29%
- concentration of Sax after incubation with liver microsomal enzyme (liver microsomal enzyme; control group microsomes): 350000 ng/mL
- concentration of Sax after incubation with liver microsomal enzyme (liver microsomal enzyme; depression group microsomes): 150000 ng/mL
- oral bioavailability [2]: good oral bioavailability
